≈ marks a conversion by molar mass, not a printed value.
Columns and labels:
Assay type in all cases: functional
KB = test: Cytotoxicity against human KB cells after 3 days by MTT assay; conditions: 72 h, read-out: ED50 (the source's name)
P388 = test: Cytotoxicity against mouse P388 cells after 3 days by MTT assay; conditions: P388, 72 h, read-out: ED50 (the source's name)
A549 = test: Cytotoxicity against human A549 cells after 6 days by MTT assay; conditions: A549, 144 h, read-out: ED50 (the source's name)
HT-29 = test: Cytotoxicity against human HT-29 cells after 6 days by MTT assay; conditions: HT-29, 144 h, read-out: ED50 (the source's name)

C=C1C(=O)O[C@@H]2[C@H]1[C@@H](OC(C)=O)C/C(C)=C/[C@@H](OC(C)=O)C/C(C)=C/CC[C@@]1(C)O[C@H]21 [LOBOMICHAOLIDE]
EC50 (KB): 0.59 µg/mL (≈ 1.36 µM)
EC50 (P388): 0.34 µg/mL (≈ 0.786 µM)
EC50 (A549): 0.38 µg/mL (≈ 0.879 µM)
EC50 (HT-29): 0.37 µg/mL (≈ 0.855 µM)

C=C1C(=O)O[C@@H]2[C@H]1[C@H](OC(C)=O)C/C(C)=C/C[C@H](OC(C)=O)/C(C)=C/C[C@@H](OC(C)=O)[C@]1(C)O[C@@H]21 [CRASSOLIDE]
EC50 (KB): 0.85 µg/mL (≈ 1.73 µM)
EC50 (P388): 0.08 µg/mL (≈ 0.163 µM)
EC50 (A549): 0.39 µg/mL (≈ 0.795 µM)
EC50 (HT-29): 0.26 µg/mL (≈ 0.53 µM)
